From patent US9643970B2, “Substituted imidazo [1,5-a]pyrazines as PDE9 inhibitors” (H Lundbeck A/S, priority 2012, dated 2017) come the findings set out here.

Sequence of PDE9 (O76083 whole entry): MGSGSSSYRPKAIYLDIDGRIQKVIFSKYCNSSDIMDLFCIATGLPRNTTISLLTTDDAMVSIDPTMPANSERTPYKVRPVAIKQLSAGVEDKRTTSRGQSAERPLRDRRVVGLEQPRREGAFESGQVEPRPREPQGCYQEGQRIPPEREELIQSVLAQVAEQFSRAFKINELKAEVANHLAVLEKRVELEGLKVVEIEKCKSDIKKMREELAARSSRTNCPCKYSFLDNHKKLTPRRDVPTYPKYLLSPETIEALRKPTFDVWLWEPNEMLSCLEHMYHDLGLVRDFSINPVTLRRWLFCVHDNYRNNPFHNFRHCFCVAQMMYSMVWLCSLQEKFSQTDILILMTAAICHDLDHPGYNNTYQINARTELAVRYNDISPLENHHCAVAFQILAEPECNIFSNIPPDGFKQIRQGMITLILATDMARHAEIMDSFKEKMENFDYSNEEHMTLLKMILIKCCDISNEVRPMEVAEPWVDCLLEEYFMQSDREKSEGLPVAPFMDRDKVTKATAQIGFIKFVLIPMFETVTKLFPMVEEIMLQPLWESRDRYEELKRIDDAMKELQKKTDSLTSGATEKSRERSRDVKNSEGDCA

One assay concerns the target PDE9 (Homo sapiens, UniProt O76083). The experiment in a line: PDE9 inhibition assay. The assay is classed as biochemical.
Conditions: not given
As for the experimental part: Reactions are initiated by addition of the cyclic nucleotide substrate, and reactions are allowed to proceed for one hr at room temperature before being terminated through mixing with 15 uL 8 mg/mL yttrium silicate SPA beads (Amersham). […] IC50 values were calculated by non linear regression using XLfit (IDBS).
The IC50 is the concentration that gives 50% inhibition. `O=c1[nH]c(CN2CC(c3ccccc3)C2)cn2c(C3CCOCC3)ncc12` [Compound 68, 6-[(3-phenylazetidin-1-yl)methyl]-3-tetrahydropyran-4-yl-7h-imidazo[1,5-a]pyrazin-8-one] gave an IC50 of 8 nM.

`COc1ccc(C2CN(Cc3cn4c(C5CCOCC5)ncc4c(=O)[nH]3)C2)cc1` [Compound 69, 6-[[3-(4-methoxyphenyl)azetidin-1-yl]methyl]-3-tetrahydropyran-4-yl-7h-imidazo[1,5-a]pyrazin-8-one] yielded an IC50 of 30 nM.

Take `O=c1[nH]c(CN2CC(c3ccc(C(F)(F)F)cn3)C2)cn2c(C3CCOCC3)ncc12` [Compound 70, 3-tetrahydropyran-4-yl-6-[[3-[5-(trifluoromethyl)-2-pyridyl]azetidin-1-yl]methyl]-7h-imidazo[1,5-a]pyrazin-8-one]: the IC50 turned out to be 10 nM.

`O=c1[nH]c(CN2CC(Oc3cccc(F)c3)C2)cn2c(C3CCOCC3)ncc12` [Compound 71, 6-[[3-(3-fluorophenoxy)azetidin-1-yl]methyl]-3-tetrahydropyran-4-yl-7h-imidazo[1,5-a]pyrazin-8-one] had an IC50 of 7 nM.

Take `O=c1[nH]c(CN2CC(Oc3ccc(F)cc3)C2)cn2c(C3CCOCC3)ncc12` [Compound 75, 6-[[3-(4-fluorophenoxy)azetidin-1-yl]methyl]-3-tetrahydropyran-4-yl-7h-imidazo[1,5-a]pyrazin-8-one]: half-maximal inhibition (IC50) required 115 nM.

Staying with this assay, now noted: SPA assay, 10 nM 3H-cAMP, 1 hour incubation; read-out: IC50.
With `O=c1[nH]c(CN2CC(Oc3cccc(F)n3)C2)cn2c(C3CCOCC3)ncc12` [Compound 65, 6-[[3-[(6-fluoro-2-pyridyl)oxy]azetidin-1-yl]methyl]-3-tetrahydropyran-4-yl-7h-imidazo[1,5-a]pyrazin-8-one], the IC50 turned out to be 91 nM.

`O=c1[nH]c(CN2CCC(Nc3ccccc3)C2)cn2c(C3CCOCC3)ncc12` (centres unmarked) [Compound 66, 6-[(3-anilinopyrrolidin-1-yl)methyl]-3-tetrahydropyran-4-yl-7h-imidazo[1,5-a]pyrazin-8-one]: the IC50 was 15 nM.

With `O=c1[nH]c(CN2CC(OCc3ccccc3)C2)cn2c(C3CCOCC3)ncc12` [Compound 67, 6-[(3-benzyloxyazetidin-1-yl)methyl]-3-tetrahydropyran-4-yl-7h-imidazo[1,5-a]pyrazin-8-one], the IC50 turned out to be 20 nM.

`O=c1[nH]c(CN2CC(Oc3cnc4ccccc4n3)C2)cn2c(C3CCOCC3)ncc12` [Compound 72, 6-[(3-quinoxalin-2-yloxyazetidin-1-yl)methyl]-3-tetrahydropyran-4-yl-7h-imidazo[1,5-a]pyrazin-8-one]: the IC50 turned out to be 139 nM.

As to `O=c1[nH]c(CN2CC(Oc3ccccc3)C2)cn2c(-c3ccc(F)cc3)ncc12` [Compound 73, 3-(4-fluorophenyl)-6-[(3-phenoxyazetidin-1-yl)methyl]-7h-imidazo[1,5-a]pyrazin-8-one], the IC50 came to 177 nM.

In the case of `O=c1[nH]c(CN2CC(Oc3ccc(OC(F)(F)F)cc3)C2)cn2c(-c3ccc(F)cc3)ncc12` [Compound 74, 3-(4-fluorophenyl)-6-[[3-[4-(trifluoromethoxy)phenoxy]azetidin-1-yl]methyl]-7h-imidazo[1,5-a]pyrazin-8-one], the IC50 came to 16 nM.

In the case of `O=c1[nH]c(CN2CC(c3ccc(F)cc3)C2)cn2c(-c3ccc(F)cc3)ncc12` [Compound 76, 3-(4-fluorophenyl)-6-[[3-(4-fluorophenyl)azetidin-1-yl]methyl]-7h-imidazo[1,5-a]pyrazin-8-one], the IC50 amounted to 33 nM.

On to `O=c1[nH]c(CN2CC(c3ccc(C(F)(F)F)cn3)C2)cn2c(-c3ccc(F)cc3)ncc12` [Compound 77, 3-(4-fluorophenyl)-6-[[3-[5-(trifluoromethyl)-2-pyridyl]azetidin-1-yl]methyl]-7h-imidazo[1,5-a]pyrazin-8-one], for which the IC50 stood at 4 nM.

`CCc1ccc(C2CN(Cc3cn4c(C5CCOCC5)ncc4c(=O)[nH]3)C2)cc1` [Compound 78, 6-[[3-(4-ethylphenyl)azetidin-1-yl]methyl]-3-tetrahydropyran-4-yl-7h-imidazo[1,5-a]pyrazin-8-one]: the IC50 was determined as 6 nM.
